Structures are written as SMILES. Where a name gives a salt, the structure may show the parent alone. Read-outs that look alike come from different tables or passages of the source.

This experiment deals with human SPR (Homo sapiens (Human), UniProt P35270). The experiment is described as follows: Evaluation Example 2: Measurement of human SPR inhibitory activity (seven concentrations, sepiapterin absorbance at 420 nm). The experiment is classed as biochemical. In short, it runs like this: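 Reactions ran 240 min at room temperature in 100 mM Tris-HCl pH 7.5 with 0.01% BSA. They contained tag-cleaved, E. coli-expressed full-length human SPR (diluted to 150 ng/mL), seven compound concentrations from 0.14 to 100 nM, and sepiapterin/NADPH added as a 120 μM/160 μM solution. Inhibition was calculated from sepiapterin absorbance at 420 nm.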

[1] abbreviates: sepiapterin absorbance, Table 41, read-out: concentration at 50% inhibition of human SPR (IC50).
The mark [2] stands for this setting: Evaluation Example 2, seven concentrations 0.14 nM to 100 nM, 240 minutes at room temperature, read-out: IC50.

Sequence of human SPR (P35270 whole entry): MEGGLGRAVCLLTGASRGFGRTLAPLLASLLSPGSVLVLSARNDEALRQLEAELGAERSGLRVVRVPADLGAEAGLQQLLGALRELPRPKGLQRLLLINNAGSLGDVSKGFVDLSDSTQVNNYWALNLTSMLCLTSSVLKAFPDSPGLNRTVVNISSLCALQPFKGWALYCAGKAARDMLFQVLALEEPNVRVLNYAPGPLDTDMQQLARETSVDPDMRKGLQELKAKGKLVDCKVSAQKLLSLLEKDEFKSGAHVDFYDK

`Cc1nn2c(O)c(C(=O)NC3CC3)c(=O)n(CC(C)C)c2c1/C=C/C(=O)N1CC[C@@H](C#N)C1` [Synthesis Example 689, (R,E)-3-(3-(3-Cyanopyrrolidin-1-yl)-3-oxoprop-1-en-1-yl)-N-cyclopropyl-7-hydroxy-4-isobutyl-2-methyl-5-oxo-4,5-dihydropyrazolo[1,5-a]pyrimidine-6-carboxamide]: under setting [1], the IC50 was 950 pM.

Consider `CC(C)Cn1c(=O)c(C(=O)NC2CC2)c(O)n2ncc(/C=C/C(=O)N3CC(C#N)C3)c12` [Synthesis Example 734, (E)-3-(3-(3-Cyanoazetidin-1-yl)-3-oxoprop-1-en-1-yl)-N-cyclopropyl-7-hydroxy-4-isobutyl-5-oxo-4,5-dihydropyrazolo[1,5-a]pyrimidine-6-carboxamide], for which the IC50 under setting [1] was found to be 730 pM. Regarding `CC(C)Cn1c(=O)c(C(=O)NC2CC2)c(O)n2ncc(/C=C/C(=O)N3CCC(O)CC3)c12` [compound 476, (E)-N-Cyclopropyl-7-hydroxy-3-(3-(4-hydroxypiperidin-1-yl)-3-oxoprop-1-en-1-yl)-4-isobutyl-5-oxo-4,5-dihydropyrazolo[1,5-a]pyrimidine-6-carboxamide], under setting [2], the IC50 was found to be 750 pM. Take `Cc1nn2c(O)c(C(=O)NC3CC3)c(=O)n(CC(C)C)c2c1/C=C/C(=O)N1CCO[C@@H](C)C1` [Synthesis Example 680, (S,E)-N-Cyclopropyl-7-hydroxy-4-isobutyl-2-methyl-3-(3-(2-methylmorpholino)-3-oxoprop-1-en-1-yl)-5-oxo-4,5-dihydropyrazolo[1,5-a]pyrimidine-6-carboxamide]: under setting [2], the IC50 was determined as 810 pM. In the case of `CC(C)Cn1c(=O)c(C(=O)NC2CC2)c(O)n2ncc(C(=O)N(C)Cc3cccnc3)c12` [Synthesis Example 230, N6-Cyclopropyl-7-hydroxy-4-isobutyl-N3-methyl-5-oxo-N3-(pyridin-3-ylmethyl) 4,5-dihydropyrazolo[1,5-a]pyrimidine-3,6-dicarboxamide], under setting [2], the IC50 came to 930 pM. As for `CC(C)Cn1c(=O)c(C(=O)NC2CC2)c(O)n2ncc(/C=C/C(=O)N3CCCC34CCN(C(C)C)CC4)c12` [Synthesis Example 746, (E)-N-Cyclopropyl-7-hydroxy-4-isobutyl-3-(3-(8-isopropyl-1,8-diazaspiro[4.5]decan-1-yl)-3-oxoprop-1-en-1-yl)-5-oxo-4,5-dihydropyrazolo[1,5-a]pyrimidine-6-carboxamide], the IC50 under setting [1] was found to be 1540 pM.

Turning to `CC[C@H]1COCCN1C(=O)/C=C/c1c(C)nn2c(O)c(C(=O)NC3CC3)c(=O)n(CC(C)C)c12` [Synthesis Example 659, (S,E)-N-Cyclopropyl-3-(3-(3-ethylmorpholino)-3-oxoprop-1-en-1-yl)-7-hydroxy-4-isobutyl-2-methyl-5-oxo-4,5-dihydropyrazolo[1,5-a]pyrimidine-6-carboxamide], the IC50 under setting [2] came to 830 pM. Still for that read-out and setting: under `CC(C)Cn1c(=O)c(C(=O)NC2CC2)c(O)n2ncc(/C=C/C(=O)N3CCC(C(F)(F)F)C3)c12` (racemic) [compound 595, (E)-N-Cyclopropyl-7-hydroxy-4-isobutyl-5-oxo-3-(3-oxo-3-(3-(trifluoromethyl)pyrrolidin-1-yl)prop-1-en-1-yl)-4,5-dihydropyrazolo[1,5-a]pyrimidine-6-carboxamide (racemate)] stands 1540 pM; under `CC(C)Cn1c(=O)c(C(=O)NC2CC2)c(O)n2ncc(/C=C/c3noc(=O)[nH]3)c12` [Synthesis Example 267, (E)-N-Cyclopropyl-7-hydroxy-4-isobutyl-5-oxo-3-(2-(5-oxo-4,5-dihydro-1,2,4-oxadiazol-3-yl)vinyl)-4,5-dihydropyrazolo[1,5-a]pyrimidine-6-carboxamide], 14300 pM; under `Cc1nn2c(O)c(C(=O)NC3CC3)c(=O)n(CC(C)C)c2c1/C=C/C(=O)N1CCC[C@H]1C` [compound 581, (R,E)-N-Cyclopropyl-7-hydroxy-4-isobutyl-2-methyl-3-(3-(2-methylpyrrolidin-1-yl)-3-oxoprop-1-en-1-yl)-5-oxo-4,5-dihydropyrazolo[1,5-a]pyrimidine-6-carboxamide], 1090 pM. Turning to `Cc1nn2c(O)c(C(=O)NC3CC3)c(=O)n(CC(C)(C)C)c2c1/C=C/C(=O)N1CCC[C@@H]1C(C)(C)O` [Synthesis Example 655, (R,E)-N-Cyclopropyl-7-hydroxy-3-(3-(2-(2-hydroxypropan-2-yl)pyrrolidin-1-yl)-3-oxoprop-1-en-1-yl)-2-methyl-4-neopentyl-5-oxo-4,5-dihydropyrazolo[1,5-a]pyrimidine-6-carboxamide], the IC50 under setting [2] stood at 1050 pM.

Take `CC(C)Cn1c(=O)c(C(=O)NC2CC2)c(O)n2ncc(/C=C/C(=O)N3C[C@H]4COC[C@H]4C3)c12` [Synthesis Example 708, N-Cyclopropyl-7-hydroxy-4-isobutyl-5-oxo-3-((E)-3-oxo-3-((3aR,6aS)-tetrahydro-1H-furo[3,4-c]pyrrol-5(3H)-yl)prop-1-en-1-yl)-4,5-dihydropyrazolo[1,5-a]pyrimidine-6-carboxamide]: the IC50 under setting [1] was 740 pM. Regarding `Cc1nn2c(O)c(C(=O)NC3CC3)c(=O)n(CC(C)C)c2c1/C=C/C(=O)N1CCOC(C)(C)C1` [Synthesis Example 657, (E)-N-Cyclopropyl-3-(3-(2,2-dimethylmorpholino)-3-oxoprop-1-en-1-yl)-7-hydroxy-4-isobutyl-2-methyl-5-oxo-4,5-dihydropyrazolo[1,5-a]pyrimidine-6-carboxamide], under setting [2], the IC50 stood at 920 pM. On to `CC(C)Cn1c(=O)c(C(=O)NC2CC2)c(O)n2ncc(/C=C/C(=O)N3CCOc4ccncc43)c12` [Synthesis Example 738, (E)-N-Cyclopropyl-3-(3-(2,3-dihydro-4H-pyrido[4,3-b][1,4]oxazin-4-yl)-3-oxoprop-1-en-1-yl)-7-hydroxy-4-isobutyl-5-oxo-4,5-dihydropyrazolo[1,5-a]pyrimidine-6-carboxamide], for which the IC50 under setting [1] turned out to be 1390 pM. `COc1nccc(Nc2cc3n(CC(C)(C)C)c(=O)c(C(=O)NC4CC4)c(O)n3n2)n1` [Synthesis Example 332, N-Cyclopropyl-7-hydroxy-2-((2-methoxypyrimidin-4-yl)amino)-4-neopentyl-5-oxo-4,5-dihydropyrazolo[1,5-a]pyrimidine-6-carboxamide]: the IC50 under setting [2] was 2060 pM. On the same count and under the same terms, for `C/C=C/c1c(N)nn2c(O)c(C(=O)NC3CC3)c(=O)n(CC(C)(C)C)c12` [Synthesis Example 438, (E)-2-Amino-N-cyclopropyl-7-hydroxy-4-neopentyl-5-oxo-3-(prop-1-en-1-yl)-4,5-dihydropyrazolo[1,5-a]pyrimidine-6-carboxamide hydrochloride] the value was 980 pM; for `CC(=O)N1CCCC2(CCCN2C(=O)/C=C/c2c(C)nn3c(O)c(C(=O)NC4CC4)c(=O)n(CC(C)C)c23)C1` (stereo not drawn) [Synthesis Example 663, (E)-3-(3-(7-Acetyl-1,7-diazaspiro[4.5]decan-1-yl)-3-oxoprop-1-en-1-yl)-N-cyclopropyl-7-hydroxy-4-isobutyl-2-methyl-5-oxo-4,5-dihydropyrazolo[1,5-a]pyrimidine-6-carboxamide], 1410 pM. Turning to `Cc1nn2c(O)c(C(=O)NC3CC3)c(=O)n(CC(C)C)c2c1/C=C/C(=O)N1C[C@@H](F)[C@H](F)C1` (single isomer, unassigned; isomer b) [Synthesis Example 756, N-Cyclopropyl-3-((E)-3-(trans-3,4-difluoropyrrolidin-1-yl)-3-oxoprop-1-en-1-yl)-7-hydroxy-4-isobutyl-2-methyl-5-oxo-4,5-dihydropyrazolo[1,5-a]pyrimidine-6-carboxamide (Isomer B)], the IC50 under setting [1] came to 710 pM. Turning to `CC(C)Cn1c(=O)c(C(=O)NC2CC2)c(O)n2ncc(/C=C/C(=O)N3CC[C@H](C(N)=O)C3)c12` [compound 512, (S,E)-3-(3-(3-Carbamoylpyrrolidin-1-yl)-3-oxoprop-1-en-1-yl)-N-cyclopropyl-7-hydroxy-4-isobutyl-5-oxo-4,5-dihydropyrazolo[1,5-a]pyrimidine-6-carboxamide], the IC50 under setting [2] was determined as 690 pM. As to `CC(C)(C)Cn1c(=O)c(C(=O)NC2CC2)c(O)n2nc3c(c12)CCN3C(N)=O` [Synthesis Example 397, N6-Cyclopropyl-7-hydroxy-4-neopentyl-5-oxo-2,3,4,5-tetrahydro-1H-pyrrolo[2′,3′:3,4]pyrazolo[1,5-a]pyrimidine-1,6-dicarboxamide], the IC50 under setting [2] is 1750 pM.

As to `CC(C)Cn1c(=O)c(C(=O)NC2CC2)c(O)n2ncc(/C=C/C3CCNCC3)c12` [Synthesis Example 241, (E)-N-Cyclopropyl-7-hydroxy-4-isobutyl-5-oxo-3-(2-(piperidin-4-yl)vinyl)-4,5-dihydropyrazolo[1,5-a]pyrimidine-6-carboxamide hydrochloride], the IC50 under setting [2] was 1980 pM. As for `COc1ccncc1-c1cc2n(CC(C)(C)C)c(=O)c(C(=O)NC3CC3)c(O)n2n1` [Synthesis Example 282, N-Cyclopropyl-7-hydroxy-2-(4-methoxypyridine-3-yl)-4-neopentyl-5-oxo-4,5-dihydropyrazolo[1,5-a]pyrimidine-6-carboxamide], the IC50 under setting [2] amounted to 4730 pM. Consider `CC(C)Cn1c(=O)c(C(=O)NC2CC2)c(O)n2ncc(C(=O)N[C@H](C)c3ccccn3)c12` [Synthesis Example 219, (R)-N6-Cyclopropyl-7-hydroxy-4-isobutyl-5-oxo-N3-(1-(pyridin-2-yl)ethyl)-4,5-dihydropyrazolo[1,5-a]pyrimidine-3,6-dicarboxamide], for which the IC50 under setting [2] was found to be 980 pM.

With `CC(C)(C)Cn1c(=O)c(C(=O)NC2CC2)c(O)n2nc3c(c12)CCC(=O)N3` [Synthesis Example 403, N-Cyclopropyl-4-hydroxy-1-neopentyl-2,8-dioxo-1,2,7,8,9,10-hexahydropyrido[2′,3′:3,4]pyrazolo[1,5-a]pyrimidine-3-carboxamide], under setting [2], the IC50 worked out at 610 pM.

Values taken from patent publication US20240092784A1, “CONDENSED HETEROCYCLIC COMPOUND” (NISSAN CHEMICAL CORPORATION, priority 2020, published 2024).
